Common to all, as to assay type: cell-based
Test [1] relates to human non-small-cell lung cancer cells (A549). In words: CCK-8 cell proliferation assay, A549. The following applies: 48 h, read-out: Inhibition rates (%) A549. The method, then:
(§1) Initially, the target compounds were evaluated for antiproliferative activities against human non-small-cell lung cancer cells (A549), human breast cancer cells (MDA-MB-231), human esophageal cancer cells (KYSE30), and human colon cancer cells (HCT-116) at 5 μM. All of them were tested by the CCK-8 assay using 5-Fu as the positive control.
(§2) To investigate the effects of compounds on tumor cells’ proliferation, the cell proliferation assay was performed using the Cell Counting Kit-8 (#40203ES60, Yeasen, Shanghai, China). In brief, cells were seeded in a 96-well plate at 3 × 10^3 cells per well and cultured overnight. Then, the medium was replaced with fresh DMEM medium containing various concentrations of compounds or vehicle. After 48 h of incubation, the medium was exchanged with 100 μL of FBS-free DMEM medium supplemented with 10 μL of CCK8 added to each well and incubated at 37 °C for another 2 h. Absorbance at 450 nm was measured with a microplate reader (Thermo). The experiments were performed in triplicate. The mean ± SD values presented in the figures were calculated from three independent experiments. Comparisons between groups were evaluated using GraphPad Prism version 7.0 software. p < 0.05 was considered statistically significant.
Background: Tetrazolium assays rely on reduction of a dye to a coloured formazan, in cell work by metabolically active cells.

Test [2] concerns human breast cancer cells (MDA-MB-231). In words: CCK-8 cell proliferation assay, MDA-MB-231. The following applies: 48 h, read-out: Inhibition rates (%) MDA-MB-231. How it is done:
as §1, §2

Test [3] has as its system human esophageal cancer cells (KYSE30). In words: CCK-8 cell proliferation assay, KYSE30. The following applies: KYSE-30, 48 h, read-out: Inhibition rates (%) KYSE30. The method, then: as §1, §2
Test [4] has as its system human colon cancer cells (HCT-116). In words: CCK-8 cell proliferation assay, HCT-116. To be noted: for IC50: read-out: IC50 ± SD HCT116; for inhibition at 5 µM: read-out: Inhibition rates (%) HCT-116. How it is done:
as §1
(§3) To further assess the antitumor activities of synthesized compounds against human colon cancer cells, the effects of each synthesized compound on the viability of two additional human colon cancer cells (SW620, DLD1) were evaluated, and normal human colonic epithelial cells (NCM460) were used as a control. It is obvious that all the synthesized compounds display potential antitumor activities against HCT116, DLD1, and SW620 cells. […] In addition, for SW620, the activities of most optimized compounds were slightly stronger than that of 5-Fu.
(§4) HCT116, SW620, and DLD1 were purchased from American Type Culture Collection (ATCC). SW620 and DLD1 were cultured in Dulbecco’s Modified Eagles medium (Thermo), and HCT116 was cultured in McCoy’s 5A medium (Thermo). All media were supplemented with 10% fetal bovine serum (Thermo) and 1% penicillin/streptomycin. All the cells were passaged at approximately 80% confluency. Cells were tested for mycoplasma every two months, and only mycoplasma-negative cells were used
as §2

Test [5] deals with human colon cancer cells (DLD1). As to the kind of experiment: CCK-8 cell proliferation assay, DLD1. To be noted: read-out: IC50 ± SD DLD1. How it is done: as §3, §4, §2
In test [6] the test system is human colon cancer cells (SW620). In words: CCK-8 cell proliferation assay, SW620. The following applies: read-out: IC50 ± SD SW620. How it is done:
as §3, §4, §2

The subject of test [7] is normal human colonic epithelial cells (NCM460). In words: CCK-8 cell proliferation assay, NCM460. To be noted: read-out: IC50 ± SD NCM460. How it is done:
as §3, §2

[8] abbreviates: NCM460, CCK-8, 48 h, normal colonic epithelial cells.

Like-named read-outs stand apart in the source and are kept apart here.

Consider `COC1C2CC3C(C)(C)OC(CC=C(C)C(=O)O)(C2=O)C32Oc3c(CC=C(C)C)c4c(c(O)c3C(=O)C12)C=CC(C)(C)O4` (stereo not drawn) [TH12-1, Moreollic acid], for which the inhibition (in general, the change of the read-out against control, counted positive when it falls) at 5 µM in test [1] is 18.38 ± 0.02%; in test [2], -4.9 ± 0.04%; in test [3], 20.76 ± 0.04%; in test [4] (HCT-116, 48 h), 83.9 ± 1.1%. Further, the IC50 (usually the point on the concentration scale where inhibition reaches its midpoint) was 1.71 ± 0.33 µM in test [4] (HCT-116, 48 h); 1.44 ± 0.29 µM in test [5] (DLD-1, 48 h); 1.49 ± 0.37 µM in test [6] (SW-620, 48 h); 3.16 ± 0.32 µM in test [7] (NCM460, 48 h).
As to `CONC(=O)C(C)=CCC12OC(C)(C)C3CC(C1=O)C(OC)C1C(=O)c4c(O)c5c(c(CC=C(C)C)c4OC132)OC(C)(C)C=C5` (stereo not drawn) [TH12-9], the inhibition at 5 µM in test [1] was 8.54 ± 1.11%; in test [2] it was -1.76 ± 0.43%; in test [3], 4.49 ± 1.05%; in test [4] (HCT-116, 5 μM, CCK-8, 48 h), 83.9 ± 2.07%. For the same molecule, the IC50 in test [4] (HCT-116, CCK-8, 48 h) amounted to 1.68 ± 0.26 µM; in test [5] (DLD-1, CCK-8, 48 h) it was 1.67 ± 0.7 µM; in test [6] (SW-620, CCK-8, 48 h), 1.59 ± 0.44 µM; in test [7] (setting [8]) it was 1.63 ± 0.02 µM.
In the case of `COC1C2CC3C(C)(C)OC(CC=C(C)C(=O)N4CCCCC4)(C2=O)C32Oc3c(CC=C(C)C)c4c(c(O)c3C(=O)C12)C=CC(C)(C)O4` (stereo not drawn) [TH12-2], the inhibition at 5 µM in test [1] was 2.51 ± 4.32%; in test [2], 0.14 ± 3.51%; in test [3], 9.08 ± 2.44%; in test [4] (HCT-116, 5 μM, CCK-8, 48 h), 86.1 ± 2.83%. Also, the IC50 in test [4] (HCT-116, CCK-8, 48 h) was determined as 1.19 ± 0.25 µM; in test [5] (DLD-1, CCK-8, 48 h), 1.39 ± 0.19 µM; in test [6] (SW-620, CCK-8, 48 h) it was 1.15 ± 0.13 µM; in test [7] (setting [8]) it was 4.73 ± 0.04 µM.
On to `COC1C2CC3C(C)(C)OC(CC=C(C)C(=O)N4CCSCC4)(C2=O)C32Oc3c(CC=C(C)C)c4c(c(O)c3C(=O)C12)C=CC(C)(C)O4` (stereo not drawn) [TH12-4], for which the inhibition at 5 µM in test [1] turned out to be 11.1 ± 5.41%; in test [2], 3.13 ± 1.16%; in test [3], 6.98 ± 1.99%; in test [4] (HCT-116, 5 μM, CCK-8, 48 h), 16.3 ± 4.56%. For the same molecule, the half-inhibitory concentration (IC50) is 7.62 ± 0.93 µM in test [4] (HCT-116, CCK-8, 48 h); 7.89 ± 0.12 µM in test [5] (DLD-1, CCK-8, 48 h); 7.26 ± 0.87 µM in test [6] (SW-620, CCK-8, 48 h); 19.9 ± 0.84 µM in test [7] (setting [8]).
Regarding `COC1C2CC3C(C)(C)OC(CC=C(C)C(=O)N4CCOCC4)(C2=O)C32Oc3c(CC=C(C)C)c4c(c(O)c3C(=O)C12)C=CC(C)(C)O4` (stereo not drawn) [TH12-3], the inhibition at 5 µM in test [1] was found to be 11.6 ± 4.25%; in test [2] it was 1.71 ± 1.66%; in test [3], 10.6 ± 2.66%; in test [4] (HCT-116, 5 μM, CCK-8, 48 h), 87.4 ± 2.49%. The concentration for half-maximal inhibition (IC50) in test [4] (HCT-116, CCK-8, 48 h) came to 1.96 ± 0.2 µM; in test [5] (DLD-1, CCK-8, 48 h), 2.31 ± 0.23 µM; in test [6] (SW-620, CCK-8, 48 h), 1.82 ± 0.33 µM; in test [7] (setting [8]), 4.72 ± 0.03 µM.
Regarding `COC1C2CC3C(C)(C)OC(CC=C(C)C(=O)N4CCC(c5ccccc5)CC4)(C2=O)C32Oc3c(CC=C(C)C)c4c(c(O)c3C(=O)C12)C=CC(C)(C)O4` (stereo not drawn) [TH12-7], the inhibition at 5 µM in test [1] is 4.59 ± 1.27%; in test [2], 2.99 ± 0.16%; in test [3], -2.71 ± 0.83%; in test [4] (HCT-116, 5 μM, CCK-8, 48 h), 87.1 ± 2.37%. The IC50 was determined as 1.52 ± 0.14 µM in test [4] (HCT-116, CCK-8, 48 h); 1.45 ± 0.25 µM in test [5] (DLD-1, CCK-8, 48 h); 1.31 ± 0.24 µM in test [6] (SW-620, CCK-8, 48 h); 2.97 ± 0.08 µM in test [7] (setting [8]).
In the case of `COC1C2CC3C(C)(C)OC(CC=C(C)C(=O)N4CCC(C)CC4)(C2=O)C32Oc3c(CC=C(C)C)c4c(c(O)c3C(=O)C12)C=CC(C)(C)O4` (stereo not drawn) [TH12-5], the inhibition at 5 µM in test [1] was determined as 14.3 ± 2.84%; in test [2] it was 0.69 ± 1.92%; in test [3], 5.65 ± 3.77%; in test [4] (HCT-116, 48 h), 85.5 ± 1.45%. Moreover, the IC50 in test [4] (HCT-116, 48 h) came to 2.37 ± 0.63 µM; in test [5] (DLD-1, 48 h), 2.49 ± 0.56 µM; in test [6] (SW-620, 48 h) it was 1.97 ± 0.34 µM; in test [7] (NCM460, 48 h) it was 5.11 ± 0.21 µM.
Consider `COC1C2CC3C(C)(C)OC(CC=C(C)C(=O)N4CCC(N5CCCC5)CC4)(C2=O)C32Oc3c(CC=C(C)C)c4c(c(O)c3C(=O)C12)C=CC(C)(C)O4` (stereo not drawn) [TH12-8], for which the inhibition at 5 µM in test [1] was 4.8 ± 0.63%; in test [2], 4.32 ± 1.96%; in test [3], 4.04 ± 1.5%; in test [4] (HCT-116, 5 μM, CCK-8, 48 h) it was 87.6 ± 2.76%. The IC50 worked out at 1 ± 0.13 µM in test [4] (HCT-116, CCK-8, 48 h); 1.05 ± 0.23 µM in test [5] (DLD-1, CCK-8, 48 h); 0.97 ± 0.1 µM in test [6] (SW-620, CCK-8, 48 h); 2.29 ± 0.01 µM in test [7] (setting [8]).
Consider `O=c1[nH]cc(F)c(=O)[nH]1` [5-Fu, 5-fluorouracil, reference compound], for which the inhibition at 5 µM was determined as 21.1 ± 1.79% in test [1]; 26.6 ± 2.51% in test [2]; 28 ± 2.27% in test [3]; 74.5 ± 1.1% in test [4] (HCT-116, 5 μM, CCK-8, 48 h). Besides, the IC50 is 0.62 ± 0.02 µM in test [4] (HCT-116, CCK-8, 48 h); 7.89 ± 0.75 µM in test [5] (DLD-1, CCK-8, 48 h); 2.68 ± 0.01 µM in test [6] (SW-620, CCK-8, 48 h); 13.6 ± 0.59 µM in test [7] (setting [8]).

The record behind these values is article PMC8846360, “Structural Optimization and Improving Antitumor Potential of Moreollic Acid from Gamboge” (Molecules, 2022).
